From patent US9139525B2, “N-oxide and/or di-N-oxide derivatives of dopamine receptor stabilizers/modulators displaying improved cardiovascular side-effects profiles” (TEVA PHARMACEUTICALS INTERNATIONAL GMBH, priority 2007, dated 2015) come the findings set out here.

Data set [1] has as its system dopamine, DOPAC and 5-HIAA in the striatum. Nature of the data set: Microdialysis in rat striatum (freely moving rats; dopamine, DOPAC and 5-HIAA by HPLC with electrochemical detection). In kind it is in vivo. On the procedure:
Microdialysis in Rat Striatum Standard microdialysis experiments were performed on-line in freely moving rats. The striatum was perfused with a Ringer solution and dopamine, DOPAC and 5-HIAA were quantified by HPLC with electrochemical detection.

The conditions of data set [2]: after S-3-OTf-3-PPP-N-ox (13) 100 μmol/kg p.o.; between 0 h and 6 h; sampled every 1 h. On the procedure: 3-OTf-3-PPP-N-ox was measured at Rt=11.68 min with a +MRM of 368/235. Precursor 3-OTf-3-PPP was measured at Rt=11.50 min with a +MRM of 352/219.
The mark [3] stands for this setting: oral administration, 91 μmol/kg.

For the compound `CCCN1CCC[C@@H](c2cccc(OS(=O)(=O)C(F)(F)F)c2)C1` [(−)-3-PPP triflate, S-3-Trifluoro-methanesulfonyloxy-(1-n-propyl-phenyl)piperidine, reference compound], in data set [1] (100 μmol/kg per os), the “3,4-dihydroxyphenylacetic acid (DOPAC) level, maximum” value is “about 175%”; the “dopamine (DA) level, maximum” value was “about 175%”; the “level of 5-hydroxyindolacetic acid (HIAA)” value is recorded as “around 100%”; the “time of maximum of DA and DOPAC level” value is on record as “about 150 minutes”. The “levels of dopamine and DOPAC after about 195 minutes” value in data set [1] (100 μmol/kg per os, after about 195 minutes (3.25 hours)) is on record as “decrease”. Besides, the “dopamine level, second rise” value in data set [1] (100 μmol/kg per os, after about 240 minutes (4 hours)) is on record as 350 % of controls. The “striatal concentration of the precursor after dosing of the N-oxide” value in data set [2] was “continuous rise”.
Take `CCC[N+]1([O-])CCC(c2cccc(S(C)(=O)=O)c2)CC1` (centres unmarked) [ACR16 N-oxide, 4-(3-Methanesulfonyl-phenyl)-1-propyl-piperidine-1-oxide]: the “3,4-dihydroxyphenylacetic acid (DOPAC) level” value is “slight rise” in data set [1] (50 μmol/kg per os) and “goes up” in data set [1] (100 μmol/kg per os given at 180 minutes after a first 50 μmol/kg per os). Also, the “dopamine (DA) level” value in data set [1] (50 μmol/kg per os, after about 45 minutes) is reported as “considerable rise”. In addition, the “level of dopamine, maximum height” value in data set [1] (100 μmol/kg per os given at 180 minutes after a first 50 μmol/kg per os, peak after 240 minutes) is on record as “more than 250 % of controls”.
In the case of `CCC[N+]1([O-])CC=C(c2cccc(S(C)(=O)=O)c2)CC1` (centres unmarked) [ACR16-ene-N-ox, 4-(3-Methanesulfonyl-phenyl)-1-propyl-1,2,3,6-tetrahydro-pyridine-N-oxide], in data set [1] (setting [3]), the DA release result is “about 300 % of controls”; the DOPAC release entry was “about 300 % of controls”; the “duration of the effects on DA and DOPAC release” value is reported as > 4 h.
As for `CCC[N+]1([O-])CCCC(c2cccc(OS(=O)(=O)C(F)(F)F)c2)C1` (centres unmarked) [S-3-PPP triflate-N-oxide, S-Trifluoromethanesulfonic acid 3-(1-propyl-piperidin-3-yl)-phenyl ester-1-oxide], in data set [1] (100 μmol/kg per os), the “3,4-dihydroxyphenylacetic acid (DOPAC) level, maximum” value is ~150%; the “dopamine (DA) level, maximum” value is “about 230%”; the “level of 5-hydroxyindolacetic acid (HIAA)” value is given as “around 100%”; the “time of maximum of DA and DOPAC level” value was “about 120 minutes”. Further, the “course of DA and DOPAC levels after the maximum” value in data set [1] (100 μmol/kg per os, whole experiment (6 h)) is listed as “constant over the whole experiment”. Further, the “pharmacological effect and duration of action” value in data set [1] (microdialysis in rat striatum) is reported as “pronounced pharmacological effect with a very long duration of action”.
